Data reported in PubChem BioAssay AID248 (DTP/NCI, 2004).
“And” between values parts separate entries of the source, which are not always exact repeats. Identical values can stand only once. Toxic doses and inconclusive results are not listed. Cut-off read from the data, not from the text of the source: active = T/C of 150% or more; inactive = T/C below 125%.

Test system: L1210 leukemia ip in BDF1 mice, survival T/C
Assay: NCI In Vivo Anticancer Drug Screen. Data for tumor model L1210 Leukemia (intraperitoneal) in B6D2F1 (BDF1) mice
Conditions: endpoint: mean survival time, higher = longer survival
Summary of the method: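 Transplantable tumor model; survival measured in treated vs vehicle control mice. Value = treated/control.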

[1] = dose: 100.0 mg/kg/injection, schedule: Q01DX009 (ip), vehicle: saline with Tween-80

Measured: T/C

CCCCc1ccc(Nc2cc(=O)[nH]c(=O)[nH]2)cc1
inactive: dose: 25.0 mg/kg/injection, schedule: Q01DX001 (ip), vehicle: gum acacia 87 % of control | dose: 50.0 mg/kg/injection, schedule: Q01DX001 (ip), vehicle: gum acacia 87 % of control | dose: 200.0 mg/kg/injection, schedule: Q01DX001 (ip), vehicle: gum acacia 88 % of control | dose: 400.0 mg/kg/injection, schedule: Q01DX001 (ip), vehicle: gum acacia 88 % of control

Cc1cc(C(=O)O)ccc1S(=O)(=O)F
inactive: dose: 25.0 mg/kg/injection, schedule: Q01DX009 (ip), vehicle: saline with Tween-80 96 % of control | dose: 50.0 mg/kg/injection, schedule: Q01DX009 (ip), vehicle: saline with Tween-80 102 % of control | [1] 92 % of control and 100 % of control

CCC(C(=O)O)N1C(=O)C2C3CCC(C3)C2C1=O (stereo unspecified)
inactive: dose: 100.0 mg/kg/injection, schedule: Q04DX003 (ip), vehicle: saline with Tween-80 98 % of control | dose: 200.0 mg/kg/injection, schedule: Q04DX003 (ip), vehicle: saline with Tween-80 103 % of control | dose: 400.0 mg/kg/injection, schedule: Q04DX003 (ip), vehicle: saline with Tween-80 103 % of control

O=C(O)C1C2C3CC(C4CC43)C12 (stereo unspecified)
inactive: [1] 96 % of control | dose: 100.0 mg/kg/injection, schedule: Q04DX003 (ip), vehicle: saline 96 % of control | dose: 200.0 mg/kg/injection, schedule: Q01DX009 (ip), vehicle: saline with Tween-80 106 % of control | dose: 200.0 mg/kg/injection, schedule: Q04DX003 (ip), vehicle: saline 93 % of control | dose: 400.0 mg/kg/injection, schedule: Q01DX009 (ip), vehicle: saline with Tween-80 96 % of control | dose: 400.0 mg/kg/injection, schedule: Q04DX003 (ip), vehicle: saline 100 % of control
